Test results as given in patent publication US20020137722A1, “Method for treating a patient with neoplasia by treatment with a paclitaxel derivative” (priority 1998, published 2002).

Legend:
[1] = test system: HT-29 colon adenocarcinoma cells; experiment: Apoptosis by DNA fragmentation assay in HT-29 cells; format: cell-based, human
cGMP-PDE = cGMP-PDE inhibition assay, enzyme from HT-29 cultured tumor cells; format: biochemical, human; conditions: for cGMP PDE % Inhibition at 100 μM: 100 μM (test compounds)
COX = COX inhibition; format: biochemical
HT-29 cells [2] = experiment: HT-29 tumor cell growth inhibition, SRB assay; format: cell-based, human; set-up: Growth Inhibition: key to the marks not given beside the values; conditions: for Growth inhibitory activity % Inhibition at 100 μM: 100 μM single dose
[3] = test system: premalignant lesions in mouse mammary gland organ culture; experiment: Mammary gland organ culture model, DMBA-induced premalignant lesions; conditions: for inhibition of formation of premalignant lesions: mammary gland organ culture
Method: For example, female BALB/c mice can be treated with a combination of estradiol and progesterone daily, in order to prime the glands to be responsive to hormones in vitro. The animals are sacrificed and thoracic mammary glands are excised aseptically and incubated for ten days in growth media supplemented with insulin, prolactin, hydrocortisone, and aldosterone. DMBA (7,12-dimethylbenz(a)anthracene) is added to medium to induce the formation of premalignant lesions. Fully developed lands are then deprived of prolactin, hydrocortisone, and aldosterone, resulting in the regression of the glands but not the pre malignant lesions.
The test compound is dissolved in DMSO and added to the culture media for the duration of the culture period. At the end of the culture period, the glands are fixed in 10% formalin, stained with alum carmine, and mounted on glass slides. The extent of the area occupied by the mammary lesions can be quantitated by projecting an image of the gland onto a digitation pad. The area covered by the gland is traced on the pad and considered as 100% of the area. The space covered by each of the unregressed structures is also outlined on the digitization pad and quantitated by the computer.
The incidence of forming mammary lesions is the ratio of the glands with mammary lesions to […]. The incidence of mammary lesions in test compound treated glands is compared with that of the untreated glands.
Mammary gland organ culture experiments were performed as previously described (Mehta and Moon, Cancer Research, 46: 5832-5835, 1986). […] The data support the hypothesis that cyclooxygenase inhibition is not necessary for the anti-neoplastic properties of desired compounds.

[4] = test system: PDE peak B (novel cGMP-PDE); experiment: cGMP hydrolysis by PDE peak B isolated from SW-480 cells; format: biochemical, human
PDE peak A (PDE5) = biological target: T1, PDE peak A (PDE5) (Homo sapiens, UniProt O76074); experiment: cGMP hydrolysis by PDE peak A isolated from SW-480 cells; format: biochemical
T1 construct: SW-480 cells are collected and homogenized; The homogenate is centrifuged, and the supernatant is loaded onto a DEAE-Trisacryl M column; endogenous in cells; host or cells: SW-480 human colon adenocarcinoma cells (DEAE-Trisacryl M fraction, peak A)

[5] = reversible; cited from earlier work
HT-29 cells [6] = experiment: Cyclic nucleotide (cGMP, cAMP) levels in HT-29 cells by radioimmunoassay; format: cell-based, human; conditions: HT-29 cells treated 30 minutes
Method: The amount of PDE activity can be determined by assaying for the amount of cyclic GMP in the extract of treated cells using a radioimmunoassay (RIA). In this procedure, a neoplastic cell line is incubated with a test compound. […]
It has been observed that a compound which is useful in the practice of this invention (i.e.. one that selectively induces apoptosis in neoplastic cells, but not substantially in normal cells) follows a time course consistent with cGMP-specific PDE inhibition. […] The intracellular targets of these drug actions are being studied further, but current data support the concert that the initial rise in cGMP content and the subsequent fall in cGMP content precede apoptosis in neoplastic cells exposed to test compounds useful in this invention. To determine the cyclic AMP content in cell extracts, radioimmunoassay techniques similar to those described above for cGMP are used.

HT-29 cells [7] = experiment: Apoptosis and necrosis by morphology (acridine orange/ethidium bromide) in HT-29 cells; format: cell-based, human; conditions: 120 μM, time course
Method: Growth inhibition (FIG. 9A, top) was measured by counting viable cells after trypan blue staining. Apoptosis (FIG. 9B, bottom) was measured by morphological determination following staining with acridine orange and ethidium bromide as described previously and Cohen, In: Current Protocols in Immunology, 3.17.1-3.17.16 New York, John Wiley and Sons, 1992). […] All data were collected from the same experiment.
Following treatment with a test compound, cultures can be assayed for apoptosis and necrosis by fluorescent microscopy following labeling with acridine orange and ethidium bromide. […]
Reference compounds and test compounds were analyzed for their cGMP-specific PDE inhibitory activity in accordance with the protocols for the assay, supra. […] Apoptotic and necrotic cell death was determined as previously described (Duke and Cohen, In: Current Protocols in Immunology, 3.17.1-3.17.16, New York. John Wiley and Sons, 1992). […]
The apoptosis inducing activity for a series of phosphodiesterase inhibitors was determined. […] Apoptosis and necrosis were determined morphologically after acridine orange and ethidium bromide labeling in accordance with the assay described supra.

## CCN(CC)CCSC12CC(=O)OC1(C)/C(=C/c1ccc(S(C)(=O)=O)cc1)c1ccc(F)cc12 (racemic) [A, rac-threo-(E)-1-(N,N′-diethylaminoethanethio)-1-(butan-1′,4′-olido)-[3′,4′:1,2]-6-fluoro-2-methyl-3-(p-methylsulfonylbenzylidene)-indan]
[1]; 100 μM
  Apoptosis inducing activity, Fold induction at 100 μM: <2.0 fold
cGMP-PDE
  cGMP PDE % Inhibition at 100 μM: <25%
COX; activity profile
  COX Inhibition: −
HT-29 cells [2]
  Growth inhibitory activity % Inhibition at 100 μM: 68%

## CC(=O)N[C@@H](CSC12CC(=O)OC1(C)/C(=C/c1ccc(S(C)(=O)=O)cc1)c1ccc(F)cc12)C(=O)O (mixture of isomers) [D, rac-(E)-1-(butan-1′,4′-olide)-[3′,4′:1,2]-6-fluoro-2-methyl-3-(p-methylsulfonylbenzylidene)-1S-indanyl-N-acetylcysteine]
[1]; activity profile
  Apoptosis: −
cGMP-PDE; activity profile
  PDE Inhibition: −
[3]; activity profile
  Mammary Gland Organ Culture: −
COX; activity profile
  COX Inhibition: −
HT-29 cells [2]
  Growth inhibitory activity % Inhibition at 100 μM: 78%
HT-29 cells [2]; activity profile
  Growth Inhibition: ++

## CC1=C(CC(=O)O)c2cc(F)ccc2/C1=C\c1ccc(Cl)cc1 [C, (Z)-5-Fluoro-2-methyl-1-(p-chlorobenzylidene)-3-acetic acid]
HT-29 cells [2]
  Growth inhibitory activity % Inhibition at 100 μM: 80%

## COc1cc(C=C2C(C)=C(CC(=O)O)c3cc(F)ccc32)cc(OC)c1OC [Compound B, (Z)-5-Fluoro-2-methyl-1-(3,4,5-trimethoxybenzylidene)-3-acetic acid]
cGMP-PDE
  cGMP PDE % Inhibition at 100 μM: <25%
COX; 100 μM
  COX Inhibition: did not inhibit COX
COX; activity profile
  COX Inhibition: −

## O=C([O-])C1CCN(c2nc(NCc3ccc4c(c3)OCO4)c3cc(Cl)ccc3n2)CC1.[Na+] [Compound E4021]
[1]
  apoptosis induction in neoplastic cells: do not have significant apoptosis-inducing
[4]
  sensitivity of the new cGMP-PDE (peak B) to inhibition: relatively insensitive
HT-29 cells [2]
  growth inhibition of neoplastic cells: do not have significant apoptosis-inducing (Table 6) or growth-inhibiting
  Growth inhibitory activity % Inhibition at 100 μM: <50%

## COc1cc(/C=C2/C(C)=C(CC(=O)NCc3ccccc3)c3cc(F)ccc32)cc(OC)c1OC [Compound E, (Z)-5-Fluoro-2-methyl-1-(3,4,5-trimethoxybenzylidene)-3-indenylacetamide, N-benzyl]
[1]
  apoptosis induction in neoplastic cells: induce apoptosis in neoplastic cells

## CC1=C(CC(=O)O)c2cc(F)ccc2/C1=C\c1ccc(S(C)(=O)=O)cc1 [Exisulind, (Z)-5-fluoro-2-methyl-1-[[4-(methylsulfonyl)phenyl]methylene]indene-3-yl acetic acid]
[4]
  sensitivity of the new cGMP-PDE (peak B) to inhibition: inhibits both PDES and the new cGMP-PDE
[3]
  inhibition of formation of premalignant lesions: effectively inhibit the formation of premalignant lesions
PDE peak A (PDE5)
  inhibition of peak A / PDE5 activity: inhibits both PDES and the new cGMP-PDE
[5]
  side effects at doses higher than the recommended therapeutic levels: elevated levels of liver enzymes

## CC1(C)C(=O)Nc2ccc(C3=NNC(=O)CC3)cc21 [Indolidan]
[4]
  sensitivity of the new cGMP-PDE (peak B) to inhibition: relatively insensitive

## COc1ccc(C2CNC(=O)C2)cc1OC1CCCC1 (centres unmarked) [Rolipram]
[4]
  sensitivity of the new cGMP-PDE (peak B) to inhibition: relatively insensitive

## CCCc1nn(C)c2c(=O)[nH]c(-c3cc(S(=O)(=O)N4CCN(C)CC4)ccc3OCC)nc12 [Sildenafil]
[1]
  apoptosis induction in neoplastic cells: do not have significant apoptosis-inducing
HT-29 cells [2]
  growth inhibition of neoplastic cells: do not have significant apoptosis-inducing (Table 6) or growth-inhibiting
PDE peak A (PDE5)
  inhibition of peak A / PDE5 activity: inhibited activity of peak A

## CSc1ccc(/C=C2/C(C)=C(CC(=O)O)c3cc(F)ccc32)cc1 [Sulindac sulfide]
[1]
  apoptosis induction in neoplastic cells: induce apoptosis in neoplastic cells
HT-29 cells [6]
  increase in levels of cGMP: greater than 50%
HT-29 cells [6]; Homo sapiens, 0.5 h, read-out: IC50 value for increase of cGMP levels
  IC50: 7.3 µM
[3]
  inhibition of formation of premalignant lesions: inactive
HT-29 cells [7]
  apoptosis, morphological determination: an increase in apoptosis

## CCOC(=O)C1=C[C@]2(CC)CCCN3CCc4c(n1c1ccccc41)[C@@H]32 [Vinpocetine]
[4]
  sensitivity of the new cGMP-PDE (peak B) to inhibition: relatively insensitive

## CCCOc1ccccc1-c1nc2nn[nH]c2c(=O)[nH]1 [Zaprinast]
[1]
  apoptosis induction in neoplastic cells: do not have significant apoptosis-inducing
[4]
  sensitivity of the new cGMP-PDE (peak B) to inhibition: relatively insensitive
HT-29 cells [2]
  growth inhibition of neoplastic cells: do not have significant apoptosis-inducing (Table 6) or growth-inhibiting

## CC1=C(CC(=O)O)c2cc(F)ccc2/C1=C/c1ccc([S+](C)[O-])cc1 (centres unmarked) [sulindac sulfoxide]
[3]
  inhibition of formation of premalignant lesions: effectively inhibit the formation of premalignant lesions
